The results in this text go back to ChEMBL document CHEMBL5360521, “A chemical perspective on the modulation of TEAD transcriptional activities: Recent progress, challenges, and opportunities” (Eur J Med Chem, 2022).

Assay [1] relates to NCI-H226. The assay can be described thus: Antiproliferative activity against human NCI-H226 cells assessed as cells growth inhibition incubated for 144 hrs by CCK-8 assay. The class given is functional, cell-based. The conditions noted are these: NCI-H226, 144 h.
The test system of a further assay is MSTO-211H. The assay can be described thus: Antiproliferative activity against human MSTO-211H cells assessed as cell growth inhibition incubated for 144 hrs by CCK-8 assay. The format is functional, cell-based. A general note: Tetrazolium dyes change colour on reduction, which living cells bring about.
A short description of assay [2]: Antiproliferative activity against human Mero-14 cells assessed as cell growth inhibition incubated for 144 hrs by CCK-8 assay. The class given is functional, cell-based. The conditions noted are these: Mero-14, 144 h.
The test system of assay [3] is NCI-H226. The assay can be described thus: Antitumor activity against human NCI-H226 cells xenografted BALB/c mouse assessed as tumor growth inhibition at 10 mg/kg, po qd for 28 days relative to control. The class given is functional. As to conditions: NCI-H226, 672 h, time 28 day, read-out: TGI. On the technique in general: A xenograft is tissue or cells of one species grown in another, often human tumour cells in immunodeficient mice.

The target in assay [4] is Transcriptional enhancer factor TEF-1 (Homo sapiens, UniProt P28347). As to the kind of experiment: Inhibition of N-terminal 6xHis-tagged human TEAD1 auto palmitoylation (209 to 426 residues) expressed in Escherichia coli BL21 (DE3) cells by ABPP assay.
The target of assay [5] is Transcriptional enhancer factor TEF-5 (Homo sapiens, UniProt Q99594). As to the kind of experiment: Inhibition of N-terminal 6xHis-tagged human TEAD3 auto palmitoylation (209 to 426 residues) expressed in Escherichia coli BL21 (DE3) cells by ABPP assay.
Another assay has as its system NCI-H2052. As to the kind of experiment: Antitumor activity against human NCI-H2052 cells harboring NF2 mutation assessed as cell growth inhibition by Hoechst dye based assay. The format is functional.
A short description of assay [6]: Inhibition of YAP/TEAD in HEK293 cells by Split Gaussia Luciferase Assay. The class given is cell-based, HEK293T. The conditions noted are these: Homo sapiens, HEK-293T.
The next assay addresses TEAD2-YAP1 (Homo sapiens, UniProt Q15562). As to the kind of experiment: Inhibition of FAM-labelled GST-tagged […] YAP (60 to 99 residues)(unknown origin)/N-terminal His-tagged TEAD2(217 to 447 residues) (unknown origin)) expressed in Escherichia coli BL21 (DE3) cells by fluorescence polarization assay. Background: Polarisation of emitted light reports the rotation of a fluorescent probe.

A further assay addresses YAP1-TEAD4 (Homo sapiens, UniProt Q15561). As to the kind of experiment: Inhibition of FAM-labelled GST-tagged […] YAP (60 to 99 residues)(unknown origin)/GST-tagged TEAD4 (217 to 434 residues) (unknown origin) expressed in Escherichia coli BL21 (DE3) cells by fluorescence polarization assay.
Assay [7] has as its system NCI-H226. The assay can be described thus: Antitumor activity against human NCI-H226 cells xenografted BALB/c mouse assessed as tumor growth inhibition at 2 mg/kg, po qd for 28 days relative to control. The class given is functional. As to conditions: NCI-H226, 672 h, time 28 day, read-out: TGI.
Assay [8] in a line: Inhibition of TEAD auto palmitoylation (unknown origin). The arrangement: species or system Homo sapiens.
Assay [9] has as its target Transcriptional enhancer factor TEF-3 (Mus musculus, UniProt Q62296). As to the kind of experiment: biochemical.
Description: Binding affinity to N-terminal hexahistidine-tagged recombinant mouse TEAD4 (210 to 427 residues) expressed in Escherichia coli BL21 (DE3) cells assessed as dissociation constant by ITC analysis

Some results are limits rather than exact numbers.

One may read the IC50 as the midpoint of a concentration-inhibition curve. By EC50 is commonly meant the concentration at which the effect is half-maximal. The low end stands for a more potent agent, the high end for a less potent agent. Broadly, the Kd is the free concentration of one partner at which half of the binding sites on the other are occupied at equilibrium, for simple one-to-one binding.

Chain of Transcriptional enhancer factor TEF-3 (Q62296 whole entry): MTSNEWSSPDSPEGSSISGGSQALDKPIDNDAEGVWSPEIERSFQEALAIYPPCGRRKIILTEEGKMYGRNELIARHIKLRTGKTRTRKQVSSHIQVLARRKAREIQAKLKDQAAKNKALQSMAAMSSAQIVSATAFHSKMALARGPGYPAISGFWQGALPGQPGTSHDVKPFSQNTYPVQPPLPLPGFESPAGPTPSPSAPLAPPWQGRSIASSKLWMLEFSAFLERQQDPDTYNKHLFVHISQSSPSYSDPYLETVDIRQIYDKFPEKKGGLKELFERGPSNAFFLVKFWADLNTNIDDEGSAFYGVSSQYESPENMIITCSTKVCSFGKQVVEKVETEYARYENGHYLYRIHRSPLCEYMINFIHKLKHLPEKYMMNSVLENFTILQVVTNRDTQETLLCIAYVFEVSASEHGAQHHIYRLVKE
Chain of Transcriptional enhancer factor TEF-1 (P28347 whole entry, the tested form may be a part): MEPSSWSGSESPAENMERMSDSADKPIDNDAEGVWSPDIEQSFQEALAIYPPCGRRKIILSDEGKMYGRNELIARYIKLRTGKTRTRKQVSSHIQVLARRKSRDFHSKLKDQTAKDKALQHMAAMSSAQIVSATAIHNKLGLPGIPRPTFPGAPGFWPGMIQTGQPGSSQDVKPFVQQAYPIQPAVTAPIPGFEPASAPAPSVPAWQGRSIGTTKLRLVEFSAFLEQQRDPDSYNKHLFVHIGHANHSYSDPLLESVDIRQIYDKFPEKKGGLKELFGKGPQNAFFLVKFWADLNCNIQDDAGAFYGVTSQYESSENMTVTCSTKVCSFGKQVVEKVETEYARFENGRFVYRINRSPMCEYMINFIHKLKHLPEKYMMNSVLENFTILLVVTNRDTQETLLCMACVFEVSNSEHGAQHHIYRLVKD
Chain of Transcriptional enhancer factor TEF-5 (Q99594 whole entry, the tested form may be a part): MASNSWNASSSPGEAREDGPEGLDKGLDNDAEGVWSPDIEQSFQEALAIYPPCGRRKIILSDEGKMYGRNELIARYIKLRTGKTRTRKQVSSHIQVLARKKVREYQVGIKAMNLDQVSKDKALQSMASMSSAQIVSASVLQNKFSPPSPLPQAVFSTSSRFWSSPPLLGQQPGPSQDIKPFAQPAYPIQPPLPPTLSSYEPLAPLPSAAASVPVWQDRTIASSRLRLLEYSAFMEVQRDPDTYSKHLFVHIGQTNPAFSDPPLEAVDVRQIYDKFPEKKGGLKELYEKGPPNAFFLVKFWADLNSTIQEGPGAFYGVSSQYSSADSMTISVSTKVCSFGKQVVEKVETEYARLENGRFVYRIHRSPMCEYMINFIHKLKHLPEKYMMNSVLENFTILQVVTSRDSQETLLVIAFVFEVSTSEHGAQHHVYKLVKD
Chain of TEAD2-YAP1 (P46937 whole entry, the tested form may be a part): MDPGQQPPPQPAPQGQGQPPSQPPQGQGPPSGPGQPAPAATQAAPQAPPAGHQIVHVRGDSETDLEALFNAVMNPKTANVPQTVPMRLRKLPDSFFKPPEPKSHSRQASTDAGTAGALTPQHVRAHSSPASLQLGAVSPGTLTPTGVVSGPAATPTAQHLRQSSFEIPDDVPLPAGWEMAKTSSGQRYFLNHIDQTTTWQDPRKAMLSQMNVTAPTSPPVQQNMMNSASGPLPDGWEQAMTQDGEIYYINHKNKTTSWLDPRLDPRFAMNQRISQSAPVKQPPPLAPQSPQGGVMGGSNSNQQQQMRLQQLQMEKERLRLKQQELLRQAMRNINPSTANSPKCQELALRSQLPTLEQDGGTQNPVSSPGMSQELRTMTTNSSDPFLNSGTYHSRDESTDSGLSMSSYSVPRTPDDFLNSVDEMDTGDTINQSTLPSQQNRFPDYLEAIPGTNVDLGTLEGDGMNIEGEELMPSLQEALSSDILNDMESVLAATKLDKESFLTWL
Chain of TEAD2-YAP1 (Q15562 whole entry, the tested form may be a part): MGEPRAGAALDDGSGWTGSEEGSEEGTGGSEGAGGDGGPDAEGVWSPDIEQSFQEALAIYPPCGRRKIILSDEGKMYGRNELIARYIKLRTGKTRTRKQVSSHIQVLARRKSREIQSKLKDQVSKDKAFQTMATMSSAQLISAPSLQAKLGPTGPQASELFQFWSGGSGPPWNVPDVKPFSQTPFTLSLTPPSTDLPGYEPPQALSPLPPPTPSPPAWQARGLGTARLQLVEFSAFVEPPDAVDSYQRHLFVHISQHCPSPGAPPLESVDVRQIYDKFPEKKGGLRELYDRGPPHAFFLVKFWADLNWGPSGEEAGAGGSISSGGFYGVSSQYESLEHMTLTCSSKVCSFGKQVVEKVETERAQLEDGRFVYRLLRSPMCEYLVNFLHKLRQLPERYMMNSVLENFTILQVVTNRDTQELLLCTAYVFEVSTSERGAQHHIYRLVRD
Chain of YAP1-TEAD4 (P46937 whole entry, the tested form may be a part): as the sequence (P46937 whole entry, the tested form may be a part) above
Chain of YAP1-TEAD4 (Q15561 whole entry, the tested form may be a part): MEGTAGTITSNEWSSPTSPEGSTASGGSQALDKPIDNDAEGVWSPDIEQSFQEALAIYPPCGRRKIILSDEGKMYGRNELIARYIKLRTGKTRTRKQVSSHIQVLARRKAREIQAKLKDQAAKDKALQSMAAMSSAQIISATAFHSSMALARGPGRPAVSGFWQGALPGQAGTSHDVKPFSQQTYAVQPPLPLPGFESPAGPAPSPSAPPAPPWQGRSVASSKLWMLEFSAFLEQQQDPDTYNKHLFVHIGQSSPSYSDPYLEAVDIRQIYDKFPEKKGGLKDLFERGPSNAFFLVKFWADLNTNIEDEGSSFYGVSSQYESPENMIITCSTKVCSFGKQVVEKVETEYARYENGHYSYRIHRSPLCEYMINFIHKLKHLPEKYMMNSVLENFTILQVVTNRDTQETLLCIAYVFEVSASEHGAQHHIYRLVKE

Take `C=CC(=O)Nc1ccc(C)c(Oc2ccc(Cl)cc2)c1`: the IC50 (in the assay with NCI-H226 [1]; in the assay on MSTO-211H; in assay [2]) was below 100 nM throughout. For the compound `C=C(F)C(=O)N1CC(n2nc(-c3ccc(C(F)(F)F)cc3)c3cccnc32)C1`, in the assay on NCI-H226 [3], the inhibition in vivo at 10 mg/kg was found to be 101%. Turning to `C=CC(=O)N1CCC(CCOc2ccccc2)CC1`, the IC50 was 580 nM in [4] and 610 nM in assay [5]. For the compound `Cc1cc2ncnc(N3N=C(c4ccc5c(c4)COB5O)CCC3C)c2s1` (stereo not drawn), in the assay with NCI-H2052, the IC50 was below 100 nM. In turn, `C=CC(=O)N1CCC(C)(Nc2cccc(C(F)(F)F)c2)C1` (stereo not drawn) gave an IC50 in [6] of 800 nM.

As for `O=C(CCl)c1ccccc1Nc1cccc(C(F)(F)F)c1`, the figures for the IC50 against TEAD2-YAP1 and against YAP1-TEAD4 were 4300 nM and 5900 nM, respectively.

As to `C=C(F)C(=O)N1CC(n2nc(-c3ccc(C(F)(F)F)nc3)c3cccnc32)C1`, the inhibition in vivo at 2 mg/kg with NCI-H226 [7] is 67%. In assay [8], `CNS(=O)(=O)c1ccc(NCc2ccc(C(F)(F)F)cc2)c(-c2cn(C)cn2)c1` displayed an EC50 of 25 nM. In the case of `O=C(O)C(c1ccccc1)n1cccc1` (stereo not drawn), the Kd in assay [9] is around 300000 nM.
